Tests used:
Assay in all cases: relative viability (nuclei count vs DMSO), 5 days (fraction); higher = more cells survive
QS11 + Pictilisib = compound: C1CC2=C(C1)C=C(C=C2)OC3=NC(=C4C(=N3)N(C=N4)CC5=CC=C(C=C5)C6=CC=CC=C6)N[C@@H](CC7=CC=CC=C7)CO [QS11] + CS(=O)(=O)N1CCN(Cc2cc3nc(-c4cccc5[nH]ncc45)nc(N4CCOCC4)c3s2)CC1 [Pictilisib] (partner 1 µM)
Summary of the method: (§1)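 Cells from lung cancer lines were seeded into 1536-well plates and, one day later, dosed by pin tool. Treatments were either a single drug or a fixed dose of an anchor drug with five library-drug doses (not always all listed) in √10 steps. After 5 days, nuclei were stained in a one-step fixation (final 0.05% Triton X-100, 1% formaldehyde, 1 ug/ml Hoechst) and counted on 4× images, and relative viability is the treated-to-vehicle nuclei ratio, as the median of duplicate plates.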

AZ628 + Lapatinib = compound: CC1=C(C=C(C=C1)NC(=O)C2=CC(=CC=C2)C(C)(C)C#N)NC3=CC4=C(C=C3)N=CN(C4=O)C [AZ628] + CS(=O)(=O)CCNCc1ccc(-c2ccc3ncnc(Nc4ccc(OCc5cccc(F)c5)c(Cl)c4)c3c2)o1 [Lapatinib] (partner 2 µM)
Summary of the method: as §1

[1] = compound: C[As](C)SC[C@H](NC(=O)CC[C@H](N)C(=O)O)C(=O)NCC(=O)O [Darinaparsin] + CC1(C)CCC(c2ccc(Cl)cc2)=C(CN2CCN(c3ccc(C(=O)NS(=O)(=O)c4ccc(N[C@H](CCN5CCOCC5)CSc5ccccc5)c(S(=O)(=O)C(F)(F)F)c4)cc3)CC2)C1 [Navitoclax] (partner 0.5 µM)
Summary of the method: as §1

[2] = compound: C[As](C)SC[C@H](NC(=O)CC[C@H](N)C(=O)O)C(=O)NCC(=O)O [Darinaparsin] + C[C@]1(O)C[C@@H](c2nc(-c3ccc4ccc(-c5ccccc5)nc4c3)c3c(N)nccn32)C1 [Linsitinib] (partner 1 µM)
Summary of the method: as §1

Cell Line	relative viability (QS11 + Pictilisib; first compound 0.08 µM)	relative viability (QS11 + Pictilisib; first compound 0.253 µM)	relative viability (QS11 + Pictilisib; first compound 0.8 µM)	relative viability (QS11 + Pictilisib; first compound 2.53 µM)	relative viability (QS11 + Pictilisib; first compound 8 µM)	relative viability (AZ628 + Lapatinib; first compound 0.08 µM)	relative viability (AZ628 + Lapatinib; first compound 0.253 µM)	relative viability (AZ628 + Lapatinib; first compound 0.8 µM)	relative viability (AZ628 + Lapatinib; first compound 2.53 µM)	relative viability (AZ628 + Lapatinib; first compound 8 µM)	relative viability ([1]; first compound 0.08 µM)	relative viability ([1]; first compound 0.8 µM)	relative viability ([1]; first compound 2.53 µM)	relative viability ([1]; first compound 8 µM)	relative viability ([2]; first compound 0.08 µM)	relative viability ([2]; first compound 0.8 µM)	relative viability ([2]; first compound 2.53 µM)	relative viability ([2]; first compound 8 µM)
UMC-11	0.748	0.844	0.899	0.901	1.12	1.05	0.903	0.95	0.9	0.968	0.339	0.313	0.305	0.311	1.04	1.07	0.862	1.32
LCLC-103H	0.636	0.543	0.591	0.74	0.609										1.12	1.05	0.936	1.24
LU99A	0.343	0.317	0.357	0.296	0.307	0.973	0.966	1.11	0.943	0.573	0.77	0.886	0.777	0.944	0.618	0.633	0.475	0.581
LXF-289	0.761	0.796	0.673	0.704	0.754	0.882	0.884	0.79	0.843	0.58	1	0.975	0.809	1.05	0.986	0.995	0.796	1.04
EPLC-272H	0.372	0.347	0.298	0.387	0.274	0.837	0.88	1.08	0.932	0.54	1.26	1.37	1.07	0.983	1.2	1.31	0.956	1.17
LOU-NH91	0.541	0.484		0.494	0.54	0.776	0.738	0.724	0.67	0.626	0.699	0.701	0.642	0.604	0.962	0.92	0.952	0.946
HCC-44	0.804	0.432	0.565	0.406	0.431	0.982	1.06	1.01	1.02	0.844	1.18	1	0.864	1.19	0.841	0.636	0.441	0.86
NCI-H1651	0.604	0.657	0.53	0.471	0.439	0.985	0.86	0.865	0.753	1.11	1.11	1.01	0.863	0.999	1.21	1.08	0.938	1.13
NCI-H1915	0.958	0.932		0.896	0.937	1.05	1	0.83	0.653	0.704	0.88	0.82	0.771	0.812	1.11	1.09	1.03	1.13

— the supplement of paper PMC10307832
